Measurements published in ChEMBL document CHEMBL4610038, “The synthesis of trifluoromethylated N-nitroaryl-2-amino-1,3-dichloropropane derivatives and their evaluation as potential anti-cancer agents” (Bioorg Med Chem Lett, 2020).

Experiments:
NCI-H1299 [1] = experiment: Cytotoxicity against human H1299 cells assessed as reduction in cell viability; format: functional, cell-based
ASPC1 [2] = experiment: Cytotoxicity against human AsPC1 cells assessed as reduction in cell viability; format: functional, cell-based
A549 [3] = experiment: Cytotoxicity against human A549 cells assessed as cell viability at 100 uM relative to control; format: functional; details: read-out: Activity
T47D [4] = experiment: Cytotoxicity against human T47D cells assessed as cell viability at 100 uM relative to control; format: functional; details: read-out: Activity
MCF7 [5] = experiment: Cytotoxicity against human MCF7 cells assessed as cell viability at 100 uM relative to control; format: functional; details: read-out: Activity
SW1990 [6] = experiment: Cytotoxicity against human SW1990 cells assessed as cell viability at 100 uM relative to control; format: functional; details: read-out: Activity
HCT-116 [7] = experiment: Cytotoxicity against human HCT116 cells assessed as reduction in cell viability; format: functional, cell-based
CNE [8] = experiment: Cytotoxicity against human CNE1 cells assessed as cell viability at 100 uM relative to control; format: functional; details: read-out: Activity
MCF-10A = experiment: Cytotoxicity against human MCF10A cells assessed as reduction in cell viability; format: cell-based
SUNE1 [9] = experiment: Cytotoxicity against human SUNE1 cells assessed as reduction in cell viability; format: functional, cell-based
[10] = Cytotoxicity against human MCF10A cells assessed as cell viability at 100 uM relative to control; format: cell-based, MCF-10A; details: read-out: Activity
[11] = Cytotoxicity against human HK1 cells assessed as reduction in cell viability; format: functional, cell-based; details: HK-1
MDA-MB-231 [12] = experiment: Cytotoxicity against human MDA-MB-231 cells assessed as reduction in cell viability; format: functional, cell-based
NCI-H1299 [13] = experiment: Cytotoxicity against human H1299 cells assessed as cell viability at 100 uM relative to control; format: functional; details: read-out: Activity
HT-29 [14] = experiment: Cytotoxicity against human HT-29 cells assessed as reduction in cell viability; format: functional, cell-based
CNE [15] = experiment: Cytotoxicity against human CNE1 cells assessed as reduction in cell viability; format: functional, cell-based
SK-BR-3 [16] = experiment: Cytotoxicity against human SKBR3 cells assessed as cell viability at 100 uM relative to control; format: functional; details: read-out: Activity
MDA-MB-231 [17] = experiment: Cytotoxicity against human MDA-MB-231 cells assessed as cell viability at 100 uM relative to control; format: functional; details: read-out: Activity
SUNE1 [18] = experiment: Cytotoxicity against human SUNE1 cells assessed as cell viability at 100 uM relative to control; format: functional; details: read-out: Activity
BXPC-3 [19] = experiment: Cytotoxicity against human BxPC3 cells assessed as cell viability at 100 uM relative to control; format: functional; details: read-out: Activity
SK-BR-3 [20] = experiment: Cytotoxicity against human SKBR3 cells assessed as reduction in cell viability; format: functional, cell-based
Caco-2 [21] = experiment: Cytotoxicity against human Caco2 cells assessed as reduction in cell viability; format: functional, cell-based
MRC5 = experiment: Cytotoxicity against human MRC5 cells assessed as reduction in cell viability; format: cell-based
MDA-MB-468 [22] = experiment: Cytotoxicity against human MDA-MB-468 cells assessed as cell viability at 100 uM relative to control; format: functional; details: read-out: Activity
SH-SY5Y [23] = experiment: Cytotoxicity against human SH-SY5Y cells assessed as reduction in cell viability; format: functional, cell-based
HT-29 [24] = experiment: Cytotoxicity against human HT-29 cells assessed as cell viability at 100 uM relative to control; format: functional; details: read-out: Activity
SW1990 [25] = experiment: Cytotoxicity against human SW1990 cells assessed as reduction in cell viability; format: functional, cell-based
ASPC1 [26] = experiment: Cytotoxicity against human AsPC1 cells assessed as cell viability at 100 uM relative to control; format: functional; details: read-out: Activity
BXPC-3 [27] = experiment: Cytotoxicity against human BxPC3 cells assessed as reduction in cell viability; format: functional, cell-based
A549 [28] = experiment: Cytotoxicity against human A549 cells assessed as reduction in cell viability; format: functional, cell-based
SW48 [29] = experiment: Cytotoxicity against human SW48 cells assessed as reduction in cell viability; format: functional, cell-based
T47D [30] = experiment: Cytotoxicity against human T47D cells assessed as reduction in cell viability; format: functional, cell-based
MCF7 [31] = experiment: Cytotoxicity against human MCF7 cells assessed as reduction in cell viability; format: functional, cell-based
SH-SY5Y [32] = experiment: Cytotoxicity against human SH-SY5Y cells assessed as cell viability at 100 uM relative to control; format: functional; details: read-out: Activity
SW48 [33] = experiment: Cytotoxicity against human SW48 cells assessed as cell viability at 100 uM relative to control; format: functional; details: read-out: Activity
MDA-MB-468 [34] = experiment: Cytotoxicity against human MDA-MB-468 cells assessed as reduction in cell viability; format: functional, cell-based
Caco-2 [35] = experiment: Cytotoxicity against human Caco2 cells assessed as cell viability at 100 uM relative to control; format: functional; details: read-out: Activity
[36] = Cytotoxicity against human HK1 cells assessed as cell viability at 100 uM relative to control; format: functional; details: HK-1, read-out: Activity
HCT-116 [37] = experiment: Cytotoxicity against human HCT116 cells assessed as cell viability at 100 uM relative to control; format: functional; details: read-out: Activity
[38] = Cytotoxicity against human MRC5 cells assessed as cell viability at 100 uM relative to control; format: cell-based; details: read-out: Activity

Row | Compound | IC50 (NCI-H1299 [1]) [µM] | IC50 (ASPC1 [2]) [µM] | viability at 100 µM (A549 [3]) [%] | viability at 100 µM (T47D [4]) [%] | viability at 100 µM (MCF7 [5]) [%] | viability at 100 µM (SW1990 [6]) [%] | IC50 (HCT-116 [7]) [µM] | viability at 100 µM (CNE [8]) [%] | IC50 (MCF-10A) [µM] | IC50 (SUNE1 [9]) [µM] | viability at 100 µM [10] [%] | IC50 [11] [µM] | IC50 (MDA-MB-231 [12]) [µM] | viability at 100 µM (NCI-H1299 [13]) [%] | IC50 (HT-29 [14]) [µM] | IC50 (CNE [15]) [µM] | viability at 100 µM (SK-BR-3 [16]) [%] | viability at 100 µM (MDA-MB-231 [17]) [%] | viability at 100 µM (SUNE1 [18]) [%] | viability at 100 µM (BXPC-3 [19]) [%] | also measured
1 | O=[N+]([O-])c1cc(C(F)(F)F)ccc1NC(CCl)CCl | > 100 | > 100 | 24.6 | 25.6 | 21.4 | 42.1 | 82.1 | 27.1 | > 100 | 92.9 | 77.1 | > 100 | 54.5 | 52.4 | 87.8 | 32.1 | 38.5 | 32.1 | 42.3 | 62.9 | IC50 (SK-BR-3 [20]): 67.8 µM; IC50 (Caco-2 [21]): 39.9 µM; IC50 (MRC5): 62.1 µM; viability at 100 µM (MDA-MB-468 [22]): 65.1%; IC50 (SH-SY5Y [23]): 62.5 µM; viability at 100 µM (HT-29 [24]): 47.1%; IC50 (SW1990 [25]): 92.1 µM; viability at 100 µM (ASPC1 [26]): 51.1%; IC50 (BXPC-3 [27]): > 100 µM; IC50 (A549 [28]): 33.3 µM; IC50 (SW48 [29]): 62.3 µM; IC50 (T47D [30]): 35.1 µM; IC50 (MCF7 [31]): 34.3 µM; viability at 100 µM (SH-SY5Y [32]): 33.7%; viability at 100 µM (SW48 [33]): 32.8%; IC50 (MDA-MB-468 [34]): > 100 µM; viability at 100 µM (Caco-2 [35]): 21.9%; viability at 100 µM [36]: 59.7%; viability at 100 µM (HCT-116 [37]): 45.1%; viability at 100 µM [38]: 29.9%
2 | O=[N+]([O-])c1ccccc1NC(CO)CO | > 100 | > 100 | 74.9 | 76.2 | 66.6 | 91.9 | > 100 | 102 | > 100 | > 100 | 100 | > 100 | > 100 | 96.7 | > 100 | > 100 | 101 | 91.8 | 99.3 | 102 | IC50 (SK-BR-3 [20]): > 100 µM; IC50 (Caco-2 [21]): > 100 µM; IC50 (MRC5): > 100 µM; viability at 100 µM (MDA-MB-468 [22]): 104%; IC50 (SH-SY5Y [23]): > 100 µM; viability at 100 µM (HT-29 [24]): 86.1%; IC50 (SW1990 [25]): > 100 µM; viability at 100 µM (ASPC1 [26]): 101%; IC50 (BXPC-3 [27]): > 100 µM; IC50 (A549 [28]): > 100 µM; IC50 (SW48 [29]): > 100 µM; IC50 (T47D [30]): > 100 µM; IC50 (MCF7 [31]): > 100 µM; viability at 100 µM (SH-SY5Y [32]): 89.7%; viability at 100 µM (SW48 [33]): 102%; IC50 (MDA-MB-468 [34]): > 100 µM; viability at 100 µM (Caco-2 [35]): 95.1%; viability at 100 µM [36]: 90.1%; viability at 100 µM (HCT-116 [37]): 76.9%; viability at 100 µM [38]: 101%
